Species on record: Rattus norvegicus
Assay: Open TG-GATES - Regimen: Single
Assay type: toxicity, organism-based, Sprague-Dawley
Design: regimen Single, gender Male, age 6 weeks
Details: in vivo, po, 100 mg/kg, route gavage, dose level High; for APTT / Bas / Eos / Fbg / Hb / Ht / Lym / MCH / MCHC / MCV / Mono / Neu / PT / Plat / RBC / Ret / WBC: tissue Blood; for KIDNEY_L / KIDNEY_R / KIDNEY_TOTAL: tissue Kidney; for LIVER: tissue Liver; for A/G / ALP / ALT / AST / BUN / CRE / Ca / Cl / DBIL / GLC / IP / K / LDH / Na / PL / RALB / TBIL / TC / TG / TP / gamma-GTP: tissue Plasma

OCCOCCN1CCN(C(c2ccccc2)c2ccc(Cl)cc2)CC1 (configuration not stated) [HYDROXYZINE]
TERMINAL_BW (3 h): 192.6 g | APTT (3 h): 16.4 s | Bas (3 h): 0.2% | Eos (3 h): 0.8% | Fbg (3 h): 276.2 mg/dL | Hb (3 h): 12.4 g/dL | Ht (3 h): 38.5% | Lym (3 h): 79.6% | MCH (3 h): 21.5 pg | MCHC (3 h): 32.3% | MCV (3 h): 66.5 fL | Mono (3 h): 2.8% | Neu (3 h): 16% | PT (3 h): 16 s | Plat (3 h): 107.8 x10_4/uL | RBC (3 h): 579.6 x10_4/ul | Ret (3 h): 9.2% | WBC (3 h): 66.5 x10_2/uL | KIDNEY_L (3 h): 0.9 g | KIDNEY_R (3 h): 0.9 g | KIDNEY_TOTAL (3 h): 1.8 g | LIVER (3 h): 8.5 g | A/G (3 h): 0.9 | ALP (3 h): 1704.8 IU/L | ALT (3 h): 45.4 IU/L | AST (3 h): 78 IU/L | BUN (3 h): 10.2 mg/dL | CRE (3 h): 0.2 mg/dL | Ca (3 h): 10.7 mg/dL | Cl (3 h): 105.8 meq/L | DBIL (3 h): 0.008 mg/dL | GLC (3 h): 167.2 mg/dL | IP (3 h): 9.5 mg/dL | K (3 h): 4.4 meq/L | LDH (3 h): 107.6 IU/L | Na (3 h): 142.4 meq/L | PL (3 h): 132.4 mg/dL | RALB (3 h): 2.5 g/dL | TBIL (3 h): 0.048 mg/dL | TC (3 h): 65.8 mg/dL | TG (3 h): 40 mg/dL | TP (3 h): 5.4 g/dL | gamma-GTP (3 h): 1 IU/L | TERMINAL_BW (6 h): 190.6 g | APTT (6 h): 16.5 s | Bas (6 h): 0% | Eos (6 h): 0.8% | Fbg (6 h): 260.2 mg/dL | Hb (6 h): 12.8 g/dL | Ht (6 h): 39.9% | Lym (6 h): 80.4% | MCH (6 h): 21.2 pg | MCHC (6 h): 32.1% | MCV (6 h): 65.8 fL | Mono (6 h): 2.6% | Neu (6 h): 15.6% | PT (6 h): 16 s | Plat (6 h): 118.2 x10_4/uL | RBC (6 h): 606.4 x10_4/ul | Ret (6 h): 8.5% | WBC (6 h): 87.3 x10_2/uL | KIDNEY_L (6 h): 0.9 g | KIDNEY_R (6 h): 0.9 g | KIDNEY_TOTAL (6 h): 1.8 g | LIVER (6 h): 7.9 g | A/G (6 h): 0.8 | ALP (6 h): 1674.2 IU/L | ALT (6 h): 39.8 IU/L | AST (6 h): 78.2 IU/L | BUN (6 h): 8.6 mg/dL | CRE (6 h): 0.2 mg/dL | Ca (6 h): 10.7 mg/dL | Cl (6 h): 106.8 meq/L | DBIL (6 h): 0.01 mg/dL | GLC (6 h): 180.8 mg/dL | IP (6 h): 9.7 mg/dL | K (6 h): 4.2 meq/L | LDH (6 h): 64.2 IU/L | Na (6 h): 141.8 meq/L | PL (6 h): 121.8 mg/dL | RALB (6 h): 2.4 g/dL | TBIL (6 h): 0.062 mg/dL | TC (6 h): 63.8 mg/dL | TG (6 h): 28 mg/dL | TP (6 h): 5.3 g/dL | gamma-GTP (6 h): 1 IU/L | TERMINAL_BW (9 h): 190.3 g | APTT (9 h): 15.9 s | Bas (9 h): 0.2% | Eos (9 h): 0.8% | Fbg (9 h): 288.6 mg/dL | Hb (9 h): 13 g/dL | Ht (9 h): 40.5% | Lym (9 h): 78.8% | MCH (9 h): 21.5 pg | MCHC (9 h): 32% | MCV (9 h): 67.2 fL | Mono (9 h): 2.8% | Neu (9 h): 16.6% | PT (9 h): 15.6 s | Plat (9 h): 116.3 x10_4/uL | RBC (9 h): 603.4 x10_4/ul | Ret (9 h): 8.6% | WBC (9 h): 75.7 x10_2/uL | KIDNEY_L (9 h): 0.9 g | KIDNEY_R (9 h): 0.9 g | KIDNEY_TOTAL (9 h): 1.8 g | LIVER (9 h): 7.7 g | A/G (9 h): 0.9 | ALP (9 h): 1671.6 IU/L | ALT (9 h): 36.2 IU/L | AST (9 h): 76.6 IU/L | BUN (9 h): 8.2 mg/dL | CRE (9 h): 0.2 mg/dL | Ca (9 h): 10.6 mg/dL | Cl (9 h): 106.6 meq/L | DBIL (9 h): 0.016 mg/dL | GLC (9 h): 182.4 mg/dL | IP (9 h): 10.6 mg/dL | K (9 h): 4.3 meq/L | LDH (9 h): 63 IU/L | Na (9 h): 142 meq/L | PL (9 h): 124.4 mg/dL | RALB (9 h): 2.5 g/dL | TBIL (9 h): 0.066 mg/dL | TC (9 h): 64.6 mg/dL | TG (9 h): 34.2 mg/dL | TP (9 h): 5.4 g/dL | gamma-GTP (9 h): 1 IU/L | TERMINAL_BW (24 h): 198.7 g | APTT (24 h): 16.8 s | Bas (24 h): 0% | Eos (24 h): 0.8% | Fbg (24 h): 253.6 mg/dL | Hb (24 h): 13.3 g/dL | Ht (24 h): 40.4% | Lym (24 h): 78.4% | MCH (24 h): 22.2 pg | MCHC (24 h): 32.9% | MCV (24 h): 67.4 fL | Mono (24 h): 3.6% | Neu (24 h): 16.4% | PT (24 h): 16.8 s | Plat (24 h): 123.7 x10_4/uL | RBC (24 h): 599.6 x10_4/ul | Ret (24 h): 7.7% | WBC (24 h): 74.7 x10_2/uL | KIDNEY_L (24 h): 0.9 g | KIDNEY_R (24 h): 0.9 g | KIDNEY_TOTAL (24 h): 1.9 g | LIVER (24 h): 9 g | A/G (24 h): 0.8 | ALP (24 h): 1880 IU/L | ALT (24 h): 45.6 IU/L | AST (24 h): 75.8 IU/L | BUN (24 h): 15.6 mg/dL | CRE (24 h): 0.2 mg/dL | Ca (24 h): 11.1 mg/dL | Cl (24 h): 107 meq/L | DBIL (24 h): 0.016 mg/dL | GLC (24 h): 181.6 mg/dL | IP (24 h): 7.7 mg/dL | K (24 h): 4.2 meq/L | LDH (24 h): 76 IU/L | Na (24 h): 141.4 meq/L | PL (24 h): 135 mg/dL | RALB (24 h): 2.6 g/dL | TBIL (24 h): 0.06 mg/dL | TC (24 h): 75.4 mg/dL | TG (24 h): 52.2 mg/dL | TP (24 h): 5.6 g/dL | gamma-GTP (24 h): 0.6 IU/L
